Data from ChEMBL document CHEMBL4420066, “Aryl amine substituted quinoxaline used as anticancer drugs” (2017).
The source made the active and inactive calls. The calls are words filed in the database; no cut-off is given here.

Legend:
[1] = species: Homo sapiens; experiment: Activation of PP2A in human SKHEP1 cells assessed as minimal concentration causing increase in protein phosphatase activity incubated for 24 hrs using phosphopeptide substrate incubated for 10 mins by malachite green-phosphate complex assay; format: cell-based
[2] = species: Homo sapiens; experiment: Inhibition of PP2A-C protein expression in human PLC5 cells at 1 uM incubated for 24 hrs by Western blotting analysis; format: functional, cell-based
[3] = system: HA22T cell line; experiment: Inhibition of CIP2A protein expression in human HA22T cells assessed as CIP2A protein expression ratio level at 1 uM by Western blotting analysis (Rvb =1); format: functional
[4] = molecular target: T1, Serine/threonine-protein kinase AKT (Homo sapiens) (UniProt P31751+Q9Y243+P31749); experiment: Inhibition of Akt phosphorylation at S473 residue in human PLC5 cells at 2 uM incubated for 24 hrs in presence of 100 nM PP2A inhibitor okadaic acid by Western blotting analysis; format: cell-based
[5] = species: Homo sapiens; experiment: Inhibition of ELK1 protein expression in human PLC5 cells at 2 uM by Western blotting analysis; format: functional, cell-based
[6] = system: SK-HEP1; experiment: Induction of apoptosis in human SKHEP1 cells assessed as induction of DNA fragmentation at 1 uM incubated for 24 hrs by ELISA; format: functional, cell-based
[7] = system: Hep 3B2; experiment: Induction of apoptosis in human Hep3B cells assessed as accumulation at subG1 phase at 0.5 to 4 uM by flow cytometry; format: functional, cell-based
[8] = molecular target: T1, Serine/threonine-protein kinase AKT (Homo sapiens); experiment: Inhibition of Akt phosphorylation at S473 residue in human HA22T cells at 1 uM by Western blotting analysis; format: cell-based; settings: TDE = time-dependent effect
[9] = system: HA22T cell line; experiment: Inhibition of CIP2A protein expression in human HA22T cells assessed as CIP2A protein expression ratio level at 0.5 uM by Western blotting analysis (Rvb =1); format: functional
[10] = Inhibition of CIP2A protein expression in human PLC5 cells assessed as CIP2A protein expression ratio level at 4 uM by Western blotting analysis (Rvb =1); format: functional
[11] = species: Homo sapiens; experiment: Inhibition of human CIP2A gene promoter in human PLC5 cells with ectopic overexpression of GFP-tagged Elk-1 assessed as inhibition of ELK1 protein expression at 2 uM by Western blotting analysis; format: cell-based
[12] = species: Homo sapiens; experiment: Activation of PP2A in human HA22T cells assessed as increase in protein phosphatase activity at 1 uM incubated for 24 hrs using phosphopeptide substrate incubated for 10 mins by malachite green-phosphate complex assay; format: cell-based
[13] = species: Homo sapiens; experiment: Activation of PP2A in human PLC5 cells assessed as minimal concentration causing increase in protein phosphatase activity incubated for 24 hrs using phosphopeptide substrate incubated for 10 mins by malachite green-phosphate complex assay; format: cell-based
[14] = system: Homo sapiens; experiment: Antitumor activity against human PLC5 cells xenografted in mouse assessed as reduction in tumor size at 10 mg/kg dosed for 4 weeks; format: functional, organism-based
[15] = species: Homo sapiens; experiment: Induction of CIP2A protein degradation in human PLC5 cells incubated for 4 to 24 hrs; format: functional, cell-based
[16] = system: Hep 3B2; experiment: Inhibition of PP2A-A protein expression in human Hep3B cells at 1 uM incubated for 24 hrs by Western blotting analysis; format: functional, cell-based
[17] = system: Hep 3B2; experiment: Induction of apoptosis in human Hep3B cells at 2 uM in presence of caspase inhibitor Z-VAD-fmk incubated for 48 hrs by annexin-V-FITC staining based by flow cytometry; format: functional, cell-based
[18] = species: Homo sapiens; experiment: Inhibition of human CIP2A gene promoter in human PLC5 cells assessed as inhibition of ELK1 protein expression by Western blotting analysis; format: cell-based
[19] = system: SK-HEP1; experiment: Inhibition of PP2A-C protein expression in human SKHEP1 cells at 1 uM incubated for 24 hrs by Western blotting analysis; format: functional, cell-based
[20] = system: Hep 3B2; experiment: Inhibition of CIP2A protein expression in human Hep3B cells assessed as CIP2A protein expression ratio level at 0.5 uM by Western blotting analysis (Rvb =1); format: functional
[21] = system: SK-HEP1; experiment: Inhibition of CIP2A protein expression in human SKHEP1 cells assessed as CIP2A protein expression ratio level at 2 uM by Western blotting analysis (Rvb =1); format: functional
[22] = system: HA22T cell line; experiment: Inhibition of CIP2A protein expression in human HA22T cells at 1 uM by Western blotting analysis; format: functional, cell-based; settings: TDE = time-dependent effect
[23] = species: Homo sapiens; experiment: Induction of apoptosis in human PLC5 cells with ectopic over expression of myc-tagged CIP2A at 2 uM incubated for 24 hrs by annexin-V-FITC staining based by flow cytometry; format: functional, cell-based
[24] = species: Homo sapiens; experiment: Induction of necrosis in human PLC5cells >= 2 uM incubated for 48 hrs by annexin-V-FITC staining based by flow cytometry relative to control; format: functional
[25] = system: Hep 3B2; experiment: Induction of apoptosis in human Hep3B cells >= 2 uM incubated for 48 hrs by annexin-V-FITC staining based by flow cytometry relative to control; format: functional
[26] = molecular target: T1, Serine/threonine-protein kinase AKT (Homo sapiens); experiment: Inhibition of Akt phosphorylation at S473 residue in human PLC5 cells at 2 uM incubated for 24 hrs in presence of PP2A-C siRNA by Western blotting analysis; format: cell-based
[27] = species: Homo sapiens; experiment: Inhibition of CIP2A mRNA expression in human PLC5 cells at 1 to 4 uM by RT-PCR analysis; format: functional, cell-based
[28] = species: Homo sapiens; experiment: Induction of apoptosis in human PLC5 cells assessed as induction of DNA fragmentation at 1 uM incubated for 24 hrs by ELISA; format: functional, cell-based
[29] = species: Homo sapiens; experiment: Inhibition of PP2A-A protein expression in human PLC5 cells at 1 uM incubated for 24 hrs by Western blotting analysis; format: functional, cell-based
[30] = system: Hep 3B2; experiment: Inhibition of PP2A-B5 protein expression in human Hep3B cells at 1 uM incubated for 24 hrs by Western blotting analysis; format: functional, cell-based
[31] = Inhibition of CIP2A protein expression in human PLC5 cells assessed as CIP2A protein expression ratio level at 2 uM by Western blotting analysis (Rvb =1); format: functional
[32] = system: HA22T cell line; experiment: Induction of apoptosis in human HA22T cells assessed as induction of DNA fragmentation at 1 uM incubated for 24 hrs by ELISA; format: functional, cell-based
[33] = species: Homo sapiens; experiment: Activation of PP2A in human HA22T cells assessed as minimal concentration causing increase in protein phosphatase activity incubated for 24 hrs using phosphopeptide substrate incubated for 10 mins by malachite green-phosphate complex assay; format: cell-based
[34] = system: SK-HEP1; experiment: Inhibition of CIP2A protein expression in human SKHEP1 cells by Western blotting analysis; format: functional, cell-based
[35] = system: HA22T cell line; experiment: Inhibition of PP2A-A protein expression in human HA22T cells at 1 uM incubated for 24 hrs by Western blotting analysis; format: functional, cell-based
[36] = system: Hep 3B2; experiment: Induction of necrosis in human Hep3B cells >= 2 uM incubated for 48 hrs by annexin-V-FITC staining based by flow cytometry relative to control; format: functional
[37] = species: Homo sapiens; experiment: Activation of PP2A in human PLC5 cells assessed as increase in protein phosphatase activity at 1 uM incubated for 24 hrs using phosphopeptide substrate incubated for 10 mins by malachite green-phosphate complex assay; format: cell-based
[38] = species: Homo sapiens; experiment: Induction of apoptosis in human PLC5 cells assessed as induction of PARP cleavage at 2 uM in presence of caspase inhibitor Z-VAD-fmk incubated for 48 hrs by Western blotting analysis; format: functional, cell-based
[39] = system: Hep 3B2; experiment: Inhibition of CIP2A protein expression in human Hep3B cells assessed as CIP2A protein expression ratio level at 2 uM by Western blotting analysis (Rvb =1); format: functional

T1 sequence (P31749 whole entry, looked up): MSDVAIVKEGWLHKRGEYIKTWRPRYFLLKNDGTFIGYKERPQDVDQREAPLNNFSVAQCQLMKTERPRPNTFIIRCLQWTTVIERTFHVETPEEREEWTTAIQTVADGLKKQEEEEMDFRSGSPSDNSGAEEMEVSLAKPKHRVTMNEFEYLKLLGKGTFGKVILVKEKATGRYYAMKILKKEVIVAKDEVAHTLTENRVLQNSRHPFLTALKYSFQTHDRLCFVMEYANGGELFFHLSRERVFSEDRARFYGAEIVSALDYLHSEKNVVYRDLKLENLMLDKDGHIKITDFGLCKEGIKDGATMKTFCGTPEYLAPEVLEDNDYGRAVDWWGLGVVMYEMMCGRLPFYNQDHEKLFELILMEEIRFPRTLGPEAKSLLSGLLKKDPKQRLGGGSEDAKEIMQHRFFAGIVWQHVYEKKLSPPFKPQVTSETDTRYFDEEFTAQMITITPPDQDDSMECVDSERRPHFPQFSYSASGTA
T1 sequence (P31751 whole entry, looked up): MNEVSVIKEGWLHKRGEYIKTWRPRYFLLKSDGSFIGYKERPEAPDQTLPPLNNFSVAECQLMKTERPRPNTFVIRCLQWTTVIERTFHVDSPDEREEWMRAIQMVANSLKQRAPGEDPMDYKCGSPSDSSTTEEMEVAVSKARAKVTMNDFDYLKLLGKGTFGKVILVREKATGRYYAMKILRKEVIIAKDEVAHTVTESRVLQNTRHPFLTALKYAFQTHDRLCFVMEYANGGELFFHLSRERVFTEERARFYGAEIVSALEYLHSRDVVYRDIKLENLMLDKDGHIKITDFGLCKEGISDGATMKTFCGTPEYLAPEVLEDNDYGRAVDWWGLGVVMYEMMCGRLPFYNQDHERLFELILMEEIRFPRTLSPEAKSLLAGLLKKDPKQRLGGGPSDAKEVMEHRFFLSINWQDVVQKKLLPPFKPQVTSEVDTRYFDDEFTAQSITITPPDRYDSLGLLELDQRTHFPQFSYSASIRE
T1 sequence (Q9Y243 whole entry, looked up): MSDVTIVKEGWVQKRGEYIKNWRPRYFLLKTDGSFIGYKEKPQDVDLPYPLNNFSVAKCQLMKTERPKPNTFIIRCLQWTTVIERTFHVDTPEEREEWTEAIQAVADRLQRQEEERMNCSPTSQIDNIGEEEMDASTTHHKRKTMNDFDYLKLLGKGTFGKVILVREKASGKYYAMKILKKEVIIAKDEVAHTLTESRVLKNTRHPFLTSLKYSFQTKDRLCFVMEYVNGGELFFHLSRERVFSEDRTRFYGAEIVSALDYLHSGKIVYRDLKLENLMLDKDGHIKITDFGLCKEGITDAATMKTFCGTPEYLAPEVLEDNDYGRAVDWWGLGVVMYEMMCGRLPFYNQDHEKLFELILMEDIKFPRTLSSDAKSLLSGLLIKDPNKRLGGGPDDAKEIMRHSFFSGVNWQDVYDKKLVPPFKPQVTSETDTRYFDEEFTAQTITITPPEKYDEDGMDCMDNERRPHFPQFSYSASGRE

## C#Cc1cccc(Nc2nc3ccccc3nc2Nc2cccc(C#C)c2)c1
[1]
  MEC: 100 to 200 nM
[2]
  inhibition: inactive
[3]
  Ratio: 0.84
[4]
  inhibition: inactive
[5]
  inhibition: inactive
[6]
  Activity: Active
[7]
  Activity: Active
[8]
  inhibition: Tde
[9]
  Ratio: 0.99
[10]
  Ratio: 0.01
[11]
  inhibition: inactive
[12]
  Activity: Active
[13]
  MEC: 100 to 200 nM
[14]
  Activity: Active
[15]
  Activity: inactive
[16]
  inhibition: inactive
[17]
  Activity: inactive
[18]
  inhibition: Dose-dependent effect
[19]
  inhibition: inactive
[20]
  Ratio: 0.87
[21]
  Ratio: 0.21
[22]
  inhibition: Tde
[23]
  Activity: inactive
[24]
  Activity: 50%
[25]
  Activity: 50%
[26]
  inhibition: inactive
[27]
  inhibition: Active
[28]
  Activity: Active
[29]
  inhibition: inactive
[30]
  inhibition: inactive
[31]
  Ratio: 0.01
[32]
  Activity: Active
[33]
  MEC: 100 to 200 nM
[34]
  inhibition: Dose-dependent effect
[35]
  inhibition: inactive
[36]
  Activity: 50%
[37]
  Activity: Active
[38]
  Activity: inactive
[39]
  Ratio: 0.49
